# Patent publication US12133923B2, “Lipid nanoparticle compositions and uses thereof” (ReCode Therapeutics, Inc., priority 2022, dated 2024)
# Where two headings read alike, the source gives them in different places.
# Legend:
# [1] = Single dose inhalation study: LNP component lipid levels in blood, lung, liver, spleen; assay type: in vivo, cynomolgus monkey; conditions: for lipid signal in lung remaining: 72 hr; for lipid signal in lung remaining, % of peak: 7 days; for time of peak lipid level in lung tissue: after inhaled Composition A-DNAI1-HA
# Protocol: Group 1 animals were terminated at 24-hours post end of exposure.
# Levels of the LNP component lipids 4A3-SC7, 14:0 EPC, and DMG-PEG were measured in blood, lung, liver, and spleen samples following administration of Composition-DNAI1-HA. Blood samples were collected at pre-treatment, 0.5 hr, 1 hr, 6 hr, 24 hr, 48 hr, and 7 days postadministration and processed to separate the plasma and blood cell fractions. Spleen and liver samples were collected at 6 hr, 24 hr, 72 hr, and 7 days post-exposure. Lung tissue was sampled in three locations from the right lung of each animal: Caudal lobe, cranial lobe, and middle lobe at each necropsy time point.
# [2] = system: CFTR function in human Bronchial Epithelials (hBE); assay: CFTR function (chloride conductance, MTECC24) in hBE after nebulized CFTR mRNA LNPs; assay type: cell-based
# Protocol: CFTR mRNA was incorporated into various LNP compositions: DODAP-containing Composition B and various non-DODAP lipid nanoparticles (400 μL for Composition A and Composition H) stored in 1× phosphate buffered saline (PBS). The compositions were nebulized using a VitroCell® system with a mesh nebulizer to deliver aerosolized LNPs to primary human Bronchial Epithelials (hBE). CFTR function was measured. The composition of the nanoparticles used in the study is shown below in Table 13.
# Experiments were conducted to evaluate the impact of cholesterol on the stability and efficacy of lipid nanoparticle (LNP) compositions. Composition B lipid nanoparticles containing higher molar percentage of cholesterol were created and subjected to test its CFTR function. Chloride conductance was measured with multi transepithelial current clamp system (MTECC24). […] Further, lipid nanoparticles containing 50% molar percentage of cholesterol were created, measured its CFTR function and resulted that increased molar percentage of cholesterol in lipid nanoparticles enhanced CFTR function (FIG. 41). […]
# Cystic Fibrosis treatment drugs (Trifkafta or Orkambi) were treated at the time of nebulization. At 24 h post-treatment, chloride conductance was measured with multi transepithelial current clamp system (MTECC24). […]
# [3] = system: hBE cells; assay: Transepithelial electrical resistance (TEER) in hBE; assay type: cell-based, human; conditions: W1282X/W1282X and R553X/W1282X hBE; pre-treatment before LNP nebulization
# Protocol: As used herein, the phrase “transepithelial electrical resistance (TEER)” is a measurement method of electrical resistance across a cellular monolayer to confirm the integrity and permeability of a monolayer. Measurement of TEER is described, for example, in Srinivasan et al. J. Lab. Automation 20:107-126 (2015).
# Cystic Fibrosis treatment drugs (Trifkafta or Orkambi) were treated at the time of nebulization. At 24 h post-treatment, chloride conductance was measured with multi transepithelial current clamp system (MTECC24). In both cell lines, nebulization of lipid nanoparticles containing CFTR mRNA rescued CFTR function.
# To determine whether aerosolized lipid nanoparticles affect cell toxicity, six ΔF508/ΔF508 homozygous genotypes hBE cells were dosed lipid nanoparticles and measured electrical resistance across a cellular monolayer and released lactic acid dehydrogenase (LDH).
# To determine whether mucus production affects transfection efficiency of lipid nanoparticles, W1282X/W1282X hBEs and R553X/W1282X hBEs cells were pre-treated Dithiothreitol (DTT) before lipid nanoparticles were nebulized (experimental scheme shown in FIG. 49). […] Cell toxicities were measured by transepithelial electrical resistance (TEER).
smiles,measurement,setting,value
"CCCCCCCCCCCCCC(=O)OCC(COP(=O)(OCC)OCC[N+](C)(C)C)OC(=O)CCCCCCCCCCCCC (stereo not shown) [14:0 EPC, 1,2-dimyristoyl-sn-glycero-3-ethylphosphocholine]",lipid signal in lung remaining,[1]; high dose,2.5%
same,lipid signal in lung remaining,[1]; low dose,13.2%
same,"lipid signal in lung remaining, % of peak",[1]; high dose,0.8%
same,"lipid signal in lung remaining, % of peak",[1]; low dose,0.7%
same,time of peak lipid level in lung tissue,[1],6 h
same,lipid level in liver,[1]; all samples except one high dose sample at 6 hr (below assay LOQ),not detected
same,concentration at 6 hr,"[1]; both sexes, cynomolgus monkey, lung, inhaled, 0.34 mg/kg, 6 hr, high dose (group 3), read-out: lipid level in lung",13900 to 66700 ng/g
same,concentration at 1 hr,"[1]; both sexes, cynomolgus monkey, plasma, inhaled, 0.34 mg/kg, high dose (group 3), 1 hr, read-out: lipid level in plasma",1.03 ng/mL
same,concentration at 6 hr,"[1]; both sexes, cynomolgus monkey, plasma, inhaled, 0.34 mg/kg, high dose (group 3), 6 hr, read-out: lipid level in plasma",1.97 ng/mL
same,concentration at 6 hr,"[1]; both sexes, cynomolgus monkey, spleen, inhaled, 0.34 mg/kg, high dose sample at 6 hr, all others not detected, read-out: lipid level in spleen",9.56 ng/g
same,lipid level in plasma,"[1]; high dose (group 3), 1 hr",0.99 ng/mL
CCCCCCCSCC(C)C(=O)OCCOC(=O)CCN(CCCN(C)CCCN(CCC(=O)OCCOC(=O)C(C)CSCCCCCCC)CCC(=O)OCCOC(=O)C(C)CSCCCCCCC)CCC(=O)OCCOC(=O)C(C)CSCCCCCCC (stereo not shown) [Composition 4A3-SC7],lipid signal in lung remaining,[1]; high dose,0.6%
same,lipid signal in lung remaining,[1]; low dose,13%
same,lipid level in lung,"[1]; 7 days post-administration, all samples except one caudal lobe sample in high dose group",below the limit of quantitation
same,time of peak lipid level in lung tissue,[1],6 h
same,concentration at 6 hr,"[1]; both sexes, cynomolgus monkey, lung, inhaled, 0.34 mg/kg, 6 hr post-exposure, high dose group, read-out: lipid level in lung",9550 to 67800 ng/mL
CC(C)(C)c1cc(C(C)(C)C)c(NC(=O)c2c[nH]c3ccccc3c2=O)cc1O [Ivacaftor],rescue of CFTR function on addition of CFTR activator,"[2]; R553X/W1282X and W1282X/W1282X hBE, after delivery of lipid nanoparticles",further increased rescue of CFTR function
"O[C@H](CS)[C@H](O)CS (racemic) [DTT, Dithiothreitol]",cell toxicity by TEER,[3],cell integrity was not affected
same,chloride flux after nebulization of lipid nanoparticles,"[2]; W1282X/W1282X and R553X/W1282X hBE, pre-treatment raised from 3 mM to 10 mM",correlated with higher chloride flux
